Laboratory results reported in patent US12552783B2, “Modulators of proteolysis and associated methods of use” (Arvinas Operations, Inc., priority 2018, dated 2026).

Legend:
Type in all cases: cell-based
KRas [1] = target: T1, KRas (Homo sapiens, UniProt P01116, G12C); assay: KRas degradation in H2030 cells by Western blot (data of Table 5); design: host or cells: NCI-H2030; details: H2030 cells serum starved 24 hours, KRas immunoblot; for H2030 Degradation at 0.3 uM: treated 24 hours with 0.3 uM; for H2030 Degradation at 1 uM: treated 24 hours with 1 uM; for H2030 Degradation at 3 uM: treated 24 hours with 3 uM
Procedure: Cell Lines, Antibodies, and Reagents. NCI-H2030 (CRL-5914) and SW1573 (CRL-2170) cells were purchased from ATCC. Both cell lines are homozygous for the G12C mutation in KRas. NCI-H2030 cells were cultured in RPMI-1640 medium containing 1% penicillin-streptomycin and 10% fetal bovine serum (FBS). SW1573 cells were cultured in DMEM containing 1% penicillin-streptomycin and 10% FBS. The KRas detection antibody (Cat. No. LS-C175665) was purchased from LifeSpan Biosciences and was used at a dilution of 1:2000. GAPDH was detected using an antibody purchased from Cell Signaling Technology (Cat. No. 5174) and was diluted 1:3000. Secondary anti-mouse and anti-rabbit detection antibodies were purchased from Cell Signaling Technology (Cat. Nos. 7076 and 7074, respectively).
Compound Treatment and Western Blotting of the Data of Table 5. H2030 cells in 12-well plates were serum starved for 24 hours, and then treated with 0.3 uM, 1 uM, and 3 uM of the indicated bifunctional compound, for 24 hours. Cells were lysed in a Cell Signaling Technology Cell Lysis Buffer (Cat. No. #9803) supplemented with protease inhibitors, and proteins were separated by SDS-PAGE. KRas was detected by immunoblotting using the LSBio antibody (Cat. No. LS-C175665).
DC50 is the half-maximal degradation concentration—i.e., the concentration at which 50% degradation is observed. DMax is the maximum degradation efficacy is achieved—i.e., the maximal degradation observed) degradation data.

KRas [2] = target: T1, KRas; assay: KRas degradation in SW1573 cells by Western blot, normalized to GAPDH (data of Table 14); details: SW1573
Outline: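 SW1573 cells, homozygous for the KRas G12C mutation and maintained in DMEM with 10% FBS and 1% penicillin-streptomycin, were seeded in 12-well plates, allowed to attach overnight at 37° C. under 5% CO2, then serum-starved for 24 hours before compound exposure. KRas levels were measured by Western blot, normalized to GAPDH, and compared with DMSO controls to give percent degradation, DC50 and Dmax.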

KRas [3] = target: T1, KRas; assay: KRas degradation in NCI-H2030 cells by Western blot, normalized to GAPDH (data of Table 14); design: host or cells: NCI-H2030
Outline: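 Both lines are homozygous for KRas G12C and were serum-starved for 24 h before treatment with compound at 0.3, 1 or 3 μM in 0.1% DMSO: 24 h for VHL-based compounds, 72 h for the rest. Western blot of 10 μg lysate gave KRas signal normalized to GAPDH, and percent degradation was expressed relative to the DMSO control.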

SMILES | H2030 Degradation at 0.3 uM (KRas [1]) | H2030 Degradation at 1 uM (KRas [1]) | H2030 Degradation at 3 uM (KRas [1]) | other results
C=CC(=O)N1CCN(c2nc(NCCC(=O)N(C)CCOCCOCCOCCOCC(=O)N[C@H](C(=O)N3C[C@H](O)C[C@H]3C(=O)N[C@@H](C)c3ccc(-c4scnc4C)cc3)C(C)(C)C)nc3c(F)c(-c4cc(O)cc5ccccc45)c(Cl)cc23)CC1 [compound 1, (2S,4R)-1-((2S)-21-((4-(4-acryloylpiperazin-1-yl)-6-chloro-8-fluoro-7-(3-hydroxynaphthalen-1-yl)quinazolin-2-yl)amino)-2-(tert-butyl)-18-methyl-4,19-dioxo-6,9,12,15-tetraoxa-3,18-diazahenicosanoyl)-4-hydroxy-N-((S)-1-(4-(4-methylthiazol-5-yl)phenyl)ethyl) pyrrolidine-2-carboxamide] | C (C < 25) | A (A ≥ 50) | A (A ≥ 50) | 
C=CC(=O)N1CCN(c2nc(NCCC(=O)N(C)CCOCCOCCOCCOCCOCC(=O)N[C@H](C(=O)N3C[C@H](O)C[C@H]3C(=O)N[C@@H](C)c3ccc(-c4scnc4C)cc3)C(C)(C)C)nc3c(F)c(-c4cc(O)cc5ccccc45)c(Cl)cc23)CC1 [compound 2, (2S,4R)-1-((2S)-24-((4-(4-acryloylpiperazin-1-yl)-6-chloro-8-fluoro-7-(3-hydroxynaphthalen-1-yl)quinazolin-2-yl)amino)-2-(tert-butyl)-21-methyl-4,22-dioxo-6,9,12,15,18-pentaoxa-3,21-diazatetracosanoyl)-4-hydroxy-N-((S)-1-(4-(4-methylthiazol-5-yl)phenyl)ethyl) pyrrolidine-2-carboxamide] | C (C < 25) | A (A ≥ 50) | A (A ≥ 50) | 
CCC(=O)N1CCN(c2nc(NCCC(=O)N(C)CCOCCOCCOCCNc3cccc4c3C(=O)N(C3CCC(=O)NC3=O)C4=O)nc3c(F)c(-c4cc(O)cc5ccccc45)c(Cl)cc23)CC1 (stereo not shown) [compound 8, 3-((6-chloro-8-fluoro-7-(3-hydroxynaphthalen-1-yl)-4-(4-propionylpiperazin-1-yl)quinazolin-2-yl)amino)-N-(2-(2-(2-(2-((2-(2,6-dioxopiperidin-3-yl)-1,3-dioxoisoindolin-4-yl)amino)ethoxy)ethoxy)ethoxy)ethyl)-N-methylpropanamide] | C (C < 25) | C (C < 25) | C (C < 25) | 
C=CC(=O)N1CCN(c2nc(OCCN(C)CCOCCOCCOCCOCC(=O)N[C@H](C(=O)N3C[C@H](O)C[C@H]3C(=O)N[C@@H](C)c3ccc(-c4scnc4C)cc3)C(C)(C)C)nc3c(F)c(-c4cc(O)cc5ccccc45)c(Cl)cc23)CC1 [compound 473, (2S,4R)-1-((2S)-20-((4-(4-acryloylpiperazin-1-yl)-6-chloro-8-fluoro-7-(3-hydroxynaphthalen-1-yl)quinazolin-2-yl)oxy)-2-(tert-butyl)-18-methyl-4-oxo-6,9,12,15-tetraoxa-3,18-diazaicosanoyl)-4-hydroxy-N-((S)-1-(4-(4-methylthiazol-5-yl)phenyl)ethyl)pyrrolidine-2-carboxamide] |  |  |  | DC50 (KRas [2]): 100 to 1000 nM; Dmax (KRas [2]): 35 to 70%; Percent Degradation at Indicated Concentration (μM) (KRas [2]; 0.03 μM): C (Percent Degradation: C ≤ 35); Percent Degradation at Indicated Concentration (μM) (KRas [2]; 0.1 μM): C (Percent Degradation: C ≤ 35); Percent Degradation at Indicated Concentration (μM) (KRas [2]; 0.3 μM): B (35 < B < 70); Percent Degradation at Indicated Concentration (μM) (KRas [2]; 1 μM): B (35 < B < 70); Percent Degradation at Indicated Concentration (μM) (KRas [2]; 3 μM): B (35 < B < 70); Percent Degradation at Indicated Concentration (μM) (KRas [2]; 10 μM): B (35 < B < 70); DC50 (KRas [3]; H2030): 100 to 1000 nM; Percent Degradation at Indicated Concentration (μM) (KRas [3]; H2030, 0.03 μM): C (Percent Degradation: C ≤ 35); Percent Degradation at Indicated Concentration (μM) (KRas [3]; H2030, 0.1 μM): C (Percent Degradation: C ≤ 35); Percent Degradation at Indicated Concentration (μM) (KRas [3]; H2030, 0.3 μM): C (Percent Degradation: C ≤ 35); Percent Degradation at Indicated Concentration (μM) (KRas [3]; H2030, 1 μM): C (Percent Degradation: C ≤ 35); Percent Degradation at Indicated Concentration (μM) (KRas [3]; H2030, 3 μM): C (Percent Degradation: C ≤ 35); Percent Degradation at Indicated Concentration (μM) (KRas [3]; H2030, 10 μM): C (Percent Degradation: C ≤ 35); Dmax (KRas [3]; NCI-H2030): ≤ 35%

Continued, in another order:

H2030 Degradation at 0.3 uM (KRas [1]) | H2030 Degradation at 1 uM (KRas [1]) | H2030 Degradation at 3 uM (KRas [1]) | SMILES | other results
C (C < 25) | B (25 ≤ B < 50) | B (25 ≤ B < 50) | C=CC(=O)N1CCN(c2nc(NCCC(=O)N(C)CCOCCOCCOCCNc3cccc4c3C(=O)N(C3CCC(=O)NC3=O)C4=O)nc3c(F)c(-c4cc(O)cc5ccccc45)c(Cl)cc23)CC1 (stereo not shown) [compound 3, 3-((4-(4-acryloylpiperazin-1-yl)-6-chloro-8-fluoro-7-(3-hydroxynaphthalen-1-yl)quinazolin-2-yl)amino)-N-(2-(2-(2-(2-((2-(2,6-dioxopiperidin-3-yl)-1,3-dioxoisoindolin-4-yl)amino)ethoxy)ethoxy)ethoxy)ethyl)-N-methylpropanamide] | 
C (C < 25) | B (25 ≤ B < 50) | B (25 ≤ B < 50) | C=CC(=O)N1CCN(c2nc(NCCC(=O)N(C)CCOCCOCCOCC(=O)N[C@H](C(=O)N3C[C@H](O)C[C@H]3C(=O)N[C@@H](C)c3ccc(-c4scnc4C)cc3)C(C)(C)C)nc3c(F)c(-c4cc(O)cc5ccccc45)c(Cl)cc23)CC1 [compound 4, (2S,4R)-1-((2S)-18-((4-(4-acryloylpiperazin-1-yl)-6-chloro-8-fluoro-7-(3-hydroxynaphthalen-1-yl)quinazolin-2-yl)amino)-2-(tert-butyl)-15-methyl-4,16-dioxo-6,9,12-trioxa-3,15-diazaoctadecanoyl)-4-hydroxy-N-((S)-1-(4-(4-methylthiazol-5-yl)phenyl)ethyl) pyrrolidine-2-carboxamide] | 
C (C < 25) | B (25 ≤ B < 50) | B (25 ≤ B < 50) | C=CC(=O)N1CCN(c2nc(NCCC(=O)N(C)CCOCCOCCOCCOCCOc3ccc4c(c3)CN(C3CCC(=O)NC3=O)C4=O)nc3c(F)c(-c4cc(O)cc5ccccc45)c(Cl)cc23)CC1 (stereo not shown) [compound 5, 3-((4-(4-acryloylpiperazin-1-yl)-6-chloro-8-fluoro-7-(3-hydroxynaphthalen-1-yl)quinazolin-2-yl)amino)-N-(14-((2-(2,6-dioxopiperidin-3-yl)-1-oxoisoindolin-5-yl)oxy)-3,6,9,12-tetraoxatetradecyl)-N-methylpropanamide] | 
C (C < 25) | C (C < 25) | C (C < 25) | CCC(=O)N1CCN(c2nc(NCCC(=O)N(C)CCOCCOCCOCCOCC(=O)N[C@H](C(=O)N3C[C@H](O)C[C@H]3C(=O)N[C@@H](C)c3ccc(-c4scnc4C)cc3)C(C)(C)C)nc3c(F)c(-c4cc(O)cc5ccccc45)c(Cl)cc23)CC1 [compound 6, (2S,4R)-1-((2S)-2-(tert-butyl)-21-((6-chloro-8-fluoro-7-(3-hydroxynaphthalen-1-yl)-4-(4-propionylpiperazin-1-yl)quinazolin-2-yl)amino)-18-methyl-4,19-dioxo-6,9,12,15-tetraoxa-3,18-diazahenicosanoyl)-4-hydroxy-N-((S)-1-(4-(4-methylthiazol-5-yl)phenyl)ethyl) pyrrolidine-2-carboxamide] | 
C (C < 25) | C (C < 25) | C (C < 25) | CCC(=O)N1CCN(c2nc(NCCC(=O)N(C)CCOCCOCCOCCOCCOCC(=O)N[C@H](C(=O)N3C[C@H](O)C[C@H]3C(=O)N[C@@H](C)c3ccc(-c4scnc4C)cc3)C(C)(C)C)nc3c(F)c(-c4cc(O)cc5ccccc45)c(Cl)cc23)CC1 [compound 7, (2S,4R)-1-((2S)-2-(tert-butyl)-24-((6-chloro-8-fluoro-7-(3-hydroxynaphthalen-1-yl)-4-(4-propionylpiperazin-1-yl)quinazolin-2-yl)amino)-21-methyl-4,22-dioxo-6,9,12,15,18-pentaoxa-3,21-diazatetracosanoyl)-4-hydroxy-N-((1S)-1-(4-(4-methyl-5H-114-thiazol-5-yl)phenyl)ethyl) pyrrolidine-2-carboxamide] | 
